From PubChem BioAssay AID190 (DTP/NCI, 2004)
Inconclusive results and toxic doses are left out. Rule for the calls: active = survival T/C of 150% or more; inactive = T/C below 125% in these data.

System: AKR/Lw mice, AKR lymphoma ip, median survival T/C
Test: NCI In Vivo Anticancer Drug Screen. Data for tumor model Lymphoma AKR (Transplanted) (intraperitoneal) in AKR/Lw mice
Details: endpoint: median survival time, higher = longer survival
Method: The antitumor activity of compounds was measured in mice bearing transplantable tumors. Survival or tumor size were measured and the results are expressed as the measurement made in the treated group (T) divided by the measurement made in the vehicle treated control group (C). The tumor model used in this assay is Lymphoma AKR (Transplanted) (intraperitoneal) in AKR/Lw mice

[1] = dose: 100.0 mg/kg/injection, schedule: Q01DX001 (ip), vehicle: Klucel (hydroxypropylcellulose) (HPC)
[2] = dose: 200.0 mg/kg/injection, schedule: Q01DX001 (ip), vehicle: Klucel (hydroxypropylcellulose) (HPC)
[3] = dose: 400.0 mg/kg/injection, schedule: Q01DX001 (ip), vehicle: Klucel (hydroxypropylcellulose) (HPC)
[4] = dose: 50.0 mg/kg/injection, schedule: Q01DX009 (ip), vehicle: Klucel (hydroxypropylcellulose) (HPC)
[5] = dose: 25.0 mg/kg/injection, schedule: Q04DX003 (ip), vehicle: Klucel (hydroxypropylcellulose) (HPC)
[6] = dose: 50.0 mg/kg/injection, schedule: Q04DX003 (ip), vehicle: Klucel (hydroxypropylcellulose) (HPC)

Measured: T/C

S=C1NC(c2ccccc2)NC(c2ccccc2)S1 (stereo not given)
inactive: [1] 92 % of control | [2] 92 % of control | [3] 96 % of control

N#CCCNc1ccc(NC(=O)C(F)(F)F)cc1
inactive: dose: 25.0 mg/kg/injection, schedule: Q01DX009 (ip), vehicle: Klucel (hydroxypropylcellulose) (HPC) 96 % of control | [4] 89 % of control | dose: 50.0 mg/kg/injection, schedule: Q04DX003 (ip), vehicle: other 90 % of control | dose: 100.0 mg/kg/injection, schedule: Q01DX001 (ip), vehicle: saline 103 % of control | dose: 100.0 mg/kg/injection, schedule: Q04DX003 (ip), vehicle: other 95 % of control | dose: 200.0 mg/kg/injection, schedule: Q01DX001 (ip), vehicle: saline 100 % of control | dose: 200.0 mg/kg/injection, schedule: Q04DX003 (ip), vehicle: other 95 % of control

CCn1c(O)c(C=N)c(=O)n(CC)c1=O
inactive: dose: 12.0 mg/kg/injection, schedule: Q01DX001 (ip), vehicle: saline 97 % of control | dose: 12.5 mg/kg/injection, schedule: Q04DX003 (ip), vehicle: Klucel (hydroxypropylcellulose) (HPC) 100 % of control | dose: 25.0 mg/kg/injection, schedule: Q01DX001 (ip), vehicle: saline 111 % of control | [5] 93 % of control | dose: 50.0 mg/kg/injection, schedule: Q01DX001 (ip), vehicle: saline 94 % of control | [6] 97 % of control

O=C1CSC(=S)N1c1ccco1
inactive: [5] 109 % of control | [4] 97 % of control | [6] 92 % of control | [1] 103 % of control | dose: 100.0 mg/kg/injection, schedule: Q01DX009 (ip), vehicle: Klucel (hydroxypropylcellulose) (HPC) 95 % of control | dose: 100.0 mg/kg/injection, schedule: Q04DX003 (ip), vehicle: Klucel (hydroxypropylcellulose) (HPC) 90 % of control | [2] 96 % of control | dose: 200.0 mg/kg/injection, schedule: Q01DX009 (ip), vehicle: Klucel (hydroxypropylcellulose) (HPC) 102 % of control | dose: 200.0 mg/kg/injection, schedule: Q04DX003 (ip), vehicle: Klucel (hydroxypropylcellulose) (HPC) 88 % of control

Cc1cccc(C)c1NC(=S)N(C)C
inactive: dose: 2.5 mg/kg/injection, schedule: Q04DX003 (ip), vehicle: Klucel (hydroxypropylcellulose) (HPC) 91 % of control | dose: 5.0 mg/kg/injection, schedule: Q04DX003 (ip), vehicle: Klucel (hydroxypropylcellulose) (HPC) 94 % of control | dose: 10.0 mg/kg/injection, schedule: Q04DX003 (ip), vehicle: Klucel (hydroxypropylcellulose) (HPC) 102 % of control | [1] 92 % of control | [3] 111 % of control
